Laboratory results as given in ChEMBL document CHEMBL1201862, “PubChem BioAssay data set” (2004).
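All cell lines were grown in 96-well plates and treated with compound for 48 hours. Abbreviation: GI50, concentration required for 50% inhibition of growth.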 Calls of active or inactive are those of the source. No stated cut-off is given here; in the data, active = GI50 up to about 1.1 µM and inactive = higher.

Assays:
Test in all cases: NCI anticancer screen, dose series, 48 h
MDA-N = system: MDA-N
NCI-H522 = system: NCI-H522
IGROV-1 = system: IGROV-1
OVCAR-8 = system: OVCAR-8
SF-295 = system: SF-295
SNB-19 = system: SNB-19
A498 = system: A498
OVCAR-4 = system: OVCAR-4
NCI/ADR-RES = system: NCI/ADR-RES
HOP-92 = system: HOP-92
LOX IMVI = system: LOX IMVI
NCI-H23 = system: NCI-H23
KM12 = system: KM12
SK-OV-3 = system: SK-OV-3
EKVX = system: EKVX
SK-MEL-28 = system: SK-MEL-28
UACC-62 = system: UACC-62
PC-3 = system: PC-3
ACHN = system: ACHN
SK-MEL-5 = system: SK-MEL-5
SR = system: SR
TK-10 = system: TK-10
CAKI-1 = system: CAKI-1
Malme-3M = system: Malme-3M
MDA-MB-435 = system: MDA-MB-435
SK-MEL-2 = system: SK-MEL-2
A549 = system: A549
UACC-257 = system: UACC-257
HCT-116 = system: HCT-116
DU-145 = system: DU-145
Hs-578T = system: Hs-578T
SNB-75 = system: SNB-75
UO-31 = system: UO-31
SW-620 = system: SW-620
RPMI-8226 = system: RPMI-8226
786-0 = system: 786-0
U-251 = system: U-251
T47D = system: T47D
NCI-H460 = system: NCI-H460
SF-539 = system: SF-539
HOP-62 = system: HOP-62
HL-60 = system: HL-60
HT-29 = system: HT-29
RXF 393 = system: RXF 393
COLO 205 = system: COLO 205
NCI-H226 = system: NCI-H226
CCRF-CEM = system: CCRF-CEM
K562 = system: K562
MDA-MB-231 = system: MDA-MB-231
HCC 2998 = system: HCC 2998
SN12C = system: SN12C
OVCAR-5 = system: OVCAR-5
SF-268 = system: SF-268
MOLT-4 = system: MOLT-4
HCT-15 = system: HCT-15
M14 = system: M14
MCF7 = system: MCF7

Measured: GI50

O=C1NC(=N/c2ccccc2)/C(=N\c2ccccc2)N1c1ccccc1
14.5 µM: HCT-15
inactive: MDA-N 12.3 µM | NCI-H522 1.7 µM | IGROV-1 16.6 µM | OVCAR-8 15.8 µM | SF-295 15.8 µM | SNB-19 17 µM | A498 17.2 µM | OVCAR-4 18.4 µM | NCI/ADR-RES 15.5 µM | HOP-92 16.3 µM | LOX IMVI 16.3 µM | NCI-H23 16.7 µM | KM12 15.6 µM | SK-OV-3 17.6 µM | EKVX 16.7 µM | SK-MEL-28 14.8 µM | UACC-62 12.7 µM | PC-3 14.5 µM | ACHN 16.9 µM | SK-MEL-5 15.9 µM | SR 20 µM | TK-10 16.9 µM | CAKI-1 16.3 µM | Malme-3M 17.4 µM | MDA-MB-435 14.2 µM | SK-MEL-2 15.1 µM | A549 15.9 µM | UACC-257 15.8 µM | HCT-116 17.7 µM | DU-145 12.4 µM | Hs-578T 16.6 µM | SNB-75 16.3 µM | UO-31 16.5 µM | SW-620 16.5 µM | RPMI-8226 27 µM | 786-0 15.5 µM | U-251 15.6 µM | T47D 15.1 µM | NCI-H460 16.5 µM | SF-539 17.4 µM | HOP-62 18.5 µM | HL-60 26.2 µM | HT-29 16 µM | RXF 393 15 µM | COLO 205 14.8 µM | NCI-H226 16.9 µM | CCRF-CEM 30.3 µM | K562 26.5 µM | MDA-MB-231 20.8 µM | HCC 2998 16.9 µM | SN12C 16.4 µM | OVCAR-5 18 µM | SF-268 17.9 µM | MOLT-4 25.9 µM

COc1ccc2[nH]c3c([N+](=O)[O-])ccc(NCCCN(C)C)c3/c(=N/CCCN(C)C)c2c1
1.53 µM: HCT-15
active: OVCAR-8 0.893 µM | OVCAR-4 0.914 µM | KM12 1.08 µM | PC-3 1.06 µM | SR 0.28 µM | RPMI-8226 0.635 µM | 786-0 0.94 µM | RXF 393 0.631 µM | CCRF-CEM 0.448 µM | MCF7 0.743 µM | MOLT-4 0.31 µM
inactive: IGROV-1 1.86 µM | SF-295 1.63 µM | HOP-92 3.33 µM | LOX IMVI 1.41 µM | NCI-H23 1.56 µM | SK-OV-3 2.01 µM | EKVX 2.55 µM | SK-MEL-28 1.89 µM | UACC-62 > 10 µM | SK-MEL-5 1.9 µM | M14 > 10 µM | TK-10 2.36 µM | CAKI-1 2.07 µM | Malme-3M 9.75 µM | MDA-MB-435 7.62 µM | A549 1.74 µM | UACC-257 > 10 µM | DU-145 3.24 µM | SNB-75 1.84 µM | SW-620 1.63 µM | T47D > 10 µM | HOP-62 1.4 µM | HL-60 1.77 µM | HT-29 1.12 µM | K562 1.42 µM | MDA-MB-231 1.5 µM | HCC 2998 1.24 µM | SN12C 1.35 µM | SF-268 1.64 µM
